In patent publication US10544130B2, “Metallo-beta-lactamase inhibitors” (priority 2015, dated 2020):
Counter-ions that a name gives are not always drawn. Like-named read-outs stand apart in the source and are kept apart here.

Key:
[1] = test system: Serratia marcescens expressing IMP-1 (CL5741); assay type: cell-based; details: with imipenem 1 μg/ml; 95% inhibition of bacterial growth
How it was run: (§1)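 Clinical strains were grown overnight at 35 °C on blood agar, adjusted to set OD600 in saline and diluted 1:100 into 1.1× CAMHB. Inhibitor was tested with and without imipenem at 1 μg/ml. After 22–24 h at 35 °C, absorbance was read to give synergistic concentration.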

[2] = test system: Escherichia coli expressing NDM-1 (CLB30005, CLB30016); assay type: cell-based; details: with imipenem 1 μg/ml; 95% inhibition of bacterial growth
How it was run: as §1

[3] = test system: Klebsiella pneumoniae expressing VIM-1 (IHMA599644); assay type: cell-based; details: with imipenem 1 μg/ml; 95% inhibition of bacterial growth
How it was run: as §1

[4] = test system: Pseudomonas aeruginosa PAO1 MB9798 (efflux+, IMP-1); details: imipenem at 2 μg/mL
How it was run: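 Isogenic PAO1 pair (efflux+ MB9798, efflux− MB9799, both IMP-1) tested by microbroth MIC with fixed imipenem and/or ceftazidime, usually at CLSI breakpoint, plus fixed class A/C inhibitor against AmpC. MBL inhibitor titrated; concentration restoring susceptibility recorded and fold difference between strains taken as efflux extent.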

Structure (SMILES) | Serratia marcescens (IMP-1) MITC95 [1] [µM] | Escherichia coli (NDM-1) MITC95 [2] [µM] | Klebsiella pneumoniae (VIM-1) MITC95 [3] [µM] | Efflux ratio ([4]; ratio MITC95 PA 9798/MITC95 PA 9799) | Efflux ratio ([4]; fold difference between efflux + (MB9798) and efflux − (MB9799) strains)
NC[C@H]1CCN(S(=O)(=O)c2ccc(-c3cccc4[nH]c(N)nc34)c(-c3nn[nH]n3)c2S(N)(=O)=O)C1 [Example 253, (R)-3-(2-amino-1H-benzo[d]imidazol-4-yl)-6-((3-(aminomethyl)pyrrolidin-1-yl)sulfonyl)-2-(2H-tetrazol-5-yl)benzenesulfonamide] | 0.7813 | 1.563 | 1.563 |  | 
NCC(=O)NC1C=C(c2ccc(S(=O)(=O)N[C@@H]3CCNC3)c(S(N)(=O)=O)c2-c2nn[nH]n2)CCC1 (stereo partly drawn) [Example 269, 2-Amino-N-(4′-(N—((R)-pyrrolidin-3-yl)sulfamoyl)-3′-sulfamoyl-2′-(2H-tetrazol-5-yl)-3,4,5,6-tetrahydro-[1,1′-biphenyl]-3-yl)acetamide] | 1.563 | 1.563 | 3.125 |  | 
Cn1nnc2c(-c3ccc(S(=O)(=O)N[C@H]4CCNC4)c(S(N)(=O)=O)c3-c3nn[nH]n3)cccc21 [Example 293, (S)-4-(1-methyl-1H-benzo[d][1,2,3]triazol-4-yl)-N1-(pyrrolidin-3-yl)-3-(2H-tetrazol-5-yl)benzene-1,2-disulfonamide] | 3.125 | 3.125 | 3.125 |  | 
NCCNS(=O)(=O)c1ccc(-c2cccc(C(=O)N[C@@H]3CNC[C@H]3O)c2)c(-c2nn[nH]n2)c1S(N)(=O)=O [Example 344, 4′-(N-(2-aminoethyl)sulfamoyl)-N-((3R,4R)-4-hydroxypyrrolidin-3-yl)-3′-sulfamoyl-2′-(2H-tetrazol-5-yl)-[1,1′-biphenyl]-3-carboxamide] | 1.563 | 0.7813 | 1.563 |  | 
NCc1nc2c(-c3ccc(S(=O)(=O)N[C@H](CN)CO)c(S(N)(=O)=O)c3-c3nn[nH]n3)cccc2s1 [Example 363, (R)—N1-(1-amino-3-hydroxypropan-2-yl)-4-(2-(aminomethyl)benzo[d]thiazol-4-yl)-3-(2H-tetrazol-5-yl)benzene-1,2-disulfonamide] |  | 3.125 | 3.125 | 4.00 | 
C[C@@H](N)CNS(=O)(=O)c1ccc(-c2cccc3sc(N)nc23)c(-c2nn[nH]n2)c1S(N)(=O)=O [Example 390, 4-(2-amino-1,3-benzothiazol-4-yl)-N^1-[(2R)-2-aminopropyl]-3-(2H-tetrazol-5-yl)benzene-1,2-disulfonamide] | 1.563 | 3.125 | 3.125 |  | 
Nc1nc2c(-c3ccc(S(=O)(=O)N[C@H]4CCNC4)c(S(N)(=O)=O)c3-c3nn[nH]n3)cc(F)cc2[nH]1 [Example 399, (S)-4-(2-amino-6-fluoro-1H-benzo[d]imidazol-4-yl)-N^1-(pyrrolidin-3-yl)-3-(2H-tetrazol-5-yl)benzene-1,2-disulfonamide] | 1.563 | 0.7813 | 1.563 |  | 
NC[C@@H](O)CNS(=O)(=O)c1ccc(-c2ccnc(N)c2)c(-c2nn[nH]n2)c1S(N)(=O)=O [Example 419, (R)-N^1-(3-amino-2-hydroxypropyl)-4-(2-aminopyridin-4-yl)-3-(2H-tetrazol-5-yl)benzene-1,2-disulfonamide] | 0.7813 | 0.1953 | 1.563 |  | 
Nc1nc2c(-c3ccc(S(=O)(=O)N[C@@H]4CNC[C@H]4N)c(S(N)(=O)=O)c3-c3nn[nH]n3)cccc2[nH]1 [Example 424, 4-(2-amino-1H-benzo[d]imidazol-4-yl)-N^1-((3R,4R)-4-aminopyrrolidin-3-yl)-3-(2H-tetrazol-5-yl)benzene-1,2-disulfonamide] | 1.563 | 0.7813 | 1.563 |  | 
NCCNCc1sc(N)nc1-c1cccc(-c2ccc(S(=O)(=O)N[C@@H]3CCNC3)c(S(N)(=O)=O)c2-c2nnn[nH]2)c1 [Example 433, (R)-3′-(2-amino-5-(((2-aminoethyl)amino)methyl)thiazol-4-yl)-N^4-(pyrrolidin-3-yl)-2-(1H-tetrazol-5-yl)-[1,1′-biphenyl]-3,4-disulfonamide] | 1.563 | 0.7813 | 1.563 |  | 
NC[C@H](N)CNS(=O)(=O)c1ccc(-c2cccc(-c3c[nH]c(N)n3)c2)c(-c2nn[nH]n2)c1S(N)(=O)=O [Example 434, (S)-3′-(2-amino-1H-imidazol-4-yl)-N^4-(2,3-diaminopropyl)-2-(2H-tetrazol-5-yl)-[1,1′-biphenyl]-3,4-disulfonamide] | 1.563 | 0.7813 | 1.563 |  | 
NCC(CN)NS(=O)(=O)c1ccc(-c2cccc(-c3c[nH]c(N)n3)c2)c(-c2nn[nH]n2)c1S(N)(=O)=O [Example 435, 3′-(2-amino-1H-imidazol-4-yl)-N4-(1,3-diaminopropan-2-yl)-2-(2H-tetrazol-5-yl)-[1,1′-biphenyl]-3,4-disulfonamide] | 3.125 | 1.563 | 3.125 |  | 
NCC(CN)NS(=O)(=O)c1ccc(-c2cccc(-c3cnc(N)[nH]3)n2)c(-c2nnn[nH]2)c1S(N)(=O)=O [Example 438, 4-(6-(2-Amino-1H-imidazol-5-yl)pyridin-2-yl)-N^1-(1,3-diaminopropan-2-yl)-3-(1H-tetrazol-5-yl)benzene-1,2-disulfonamide] | 3.125 | 3.125 | 3.125 |  | 
Nc1ncc(-c2cc(-c3ccc(S(=O)(=O)N[C@@H]4CCNC4)c(S(N)(=O)=O)c3-c3nnn[nH]3)ccn2)[nH]1 [Example 440, (R)-4-(2-(2-Amino-1H-imidazol-5-yl)pyridin-4-yl)-N^1-(pyrrolidin-3-yl)-3-(1H-tetrazol-5-yl)benzene-1,2-disulfonamide] | 1.563 | 0.7813 | 1.563 |  | 
C[C@H](N)Cc1nc2c(-c3ccc(S(=O)(=O)N[C@@H]4CCNC4)c(S(N)(=O)=O)c3-c3nn[nH]n3)cccc2[nH]1 [Example 441, 4-(2-((S)-2-Aminopropyl)-1H-benzo[d]imidazol-4-yl)-N1-((R)-pyrrolidin-3-yl)-3-(2H-tetrazol-5-yl)benzene-1,2-disulfonamide] | 1.563 | 1.563 | 1.563 |  | 
NCC(F)(F)c1nc2c(-c3ccc(S(=O)(=O)N[C@H]4CCNC4)c(S(N)(=O)=O)c3-c3nn[nH]n3)cccc2[nH]1 [Example 446, (S)-4-(2-(2-amino-1,1-difluoroethyl)-1H-benzo[d]imidazol-4-yl)-N1-(pyrrolidin-3-yl)-3-(2H-tetrazol-5-yl)benzene-1,2-disulfonamide] | 3.125 | 1.563 | 3.125 |  | 
NCCNC(=O)c1cc(Cl)cc(-c2ccc(S(=O)(=O)NCCN)c(S(N)(=O)=O)c2-c2nn[nH]n2)c1N [Example 447, 2-Amino-N-(2-aminoethyl)-4′-(N-(2-aminoethyl)sulfamoyl)-5-chloro-3′-sulfamoyl-2′-(2H-tetrazol-5-yl)-[1,1′-biphenyl]-3-carboxamide] | 0.7813 | 0.7813 | 1.563 |  | 
NCCNC(=O)c1cc(Cl)cc(-c2ccc(S(=O)(=O)N[C@@H]3CCNC3)c(S(N)(=O)=O)c2-c2nn[nH]n2)c1N [Example 450, (R)-2-Amino-N-(2-aminoethyl)-5-chloro-4′-(N-(pyrrolidin-3-yl)sulfamoyl)-3′-sulfamoyl-2′-(2H-tetrazol-5-yl)-[1,1′-biphenyl]-3-carboxamide] | 1.563 | 1.563 | 1.563 |  | 
NCCNC(=O)c1cc(-c2ccc(S(=O)(=O)NCCN)c(S(N)(=O)=O)c2-c2nn[nH]n2)ccc1N [Example 451, 4-Amino-N-(2-aminoethyl)-4′-(N-(2-aminoethyl)sulfamoyl)-3′-sulfamoyl-2′-(2H-tetrazol-5-yl)-[1,1′-biphenyl]-3-carboxamide] | 0.7813 | 0.7813 | 0.7813 |  | 
NCCNS(=O)(=O)c1ccc(-c2cccc(NC(=O)[C@@H](N)CN)c2)c(-c2nn[nH]n2)c1S(N)(=O)=O [Example 453, (S)-2,3-Diamino-N-(4′-(N-(2-aminoethyl)sulfamoyl)-3′-sulfamoyl-2′-(2H-tetrazol-5-yl)-[1,1′-biphenyl]-3-yl)propanamide] | 3.125 | 1.563 | 3.125 |  | 
NC[C@]1(NS(=O)(=O)c2ccc(-c3ccc(N)nc3)c(-c3nn[nH]n3)c2S(N)(=O)=O)CCNC1 [Example 486, (R)-N1-(3-(aminomethyl)pyrrolidin-3-yl)-4-(6-aminopyridin-3-yl)-3-(2H-tetrazol-5-yl)benzene-1,2-disulfonamide dihydrochloride] |  | 0.7813 | 1.563 |  | 2.00
